Values joined by “and” are separate entries in the source; they are usually repeats but may differ in a detail not shown here. Identical values can stand only once. Active and inactive are the calls of the source.
Key:
[1] = A cytotoxicity screen of small molecule inhibitors of the PhoP region in Salmonella typhi identified in the primary screen. [Related pubchem assays: 1850, 1864, 1985 ]; assay type: functional
[2] = intracellular Trypanosoma cruzi inhibitors in host cells – cell-based, plate reader, cherry-pick samples, set 3, dose response (AID 651818); assay type: functional;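 note: compounds incubated with infected cells for about four days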
Leucine aminopeptidase = biological target: T1, Leucine aminopeptidase (Plasmodium falciparum 3D7, UniProt Q8IL11); assay: P. falciparum M17LAP inhibitors, primary screen, biochemical, fluorogenic H-Leu-NHMec substrate, 1536-well (AID 1619); assay type: functional
T1 sequence (Q8IL11 whole entry): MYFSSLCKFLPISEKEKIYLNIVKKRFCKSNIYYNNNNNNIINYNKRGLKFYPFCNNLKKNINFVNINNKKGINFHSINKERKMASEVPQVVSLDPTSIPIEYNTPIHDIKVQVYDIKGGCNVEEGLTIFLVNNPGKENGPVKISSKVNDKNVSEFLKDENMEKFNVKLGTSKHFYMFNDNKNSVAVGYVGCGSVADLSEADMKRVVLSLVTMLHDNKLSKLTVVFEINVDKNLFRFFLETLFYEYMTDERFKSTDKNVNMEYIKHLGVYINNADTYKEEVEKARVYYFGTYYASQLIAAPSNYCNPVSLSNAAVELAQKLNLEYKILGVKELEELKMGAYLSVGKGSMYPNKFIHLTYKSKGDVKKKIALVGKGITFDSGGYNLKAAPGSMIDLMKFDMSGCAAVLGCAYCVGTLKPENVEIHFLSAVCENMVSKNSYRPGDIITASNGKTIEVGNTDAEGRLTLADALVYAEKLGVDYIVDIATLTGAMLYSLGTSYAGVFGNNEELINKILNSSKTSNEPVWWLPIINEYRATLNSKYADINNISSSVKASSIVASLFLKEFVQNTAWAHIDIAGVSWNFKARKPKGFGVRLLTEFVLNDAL

Cytochrome P450 3A4 [3] = biological target: T2, Cytochrome P450 3A4 (Homo sapiens, UniProt P08684); details: Potency
T2 sequence (P08684 whole entry): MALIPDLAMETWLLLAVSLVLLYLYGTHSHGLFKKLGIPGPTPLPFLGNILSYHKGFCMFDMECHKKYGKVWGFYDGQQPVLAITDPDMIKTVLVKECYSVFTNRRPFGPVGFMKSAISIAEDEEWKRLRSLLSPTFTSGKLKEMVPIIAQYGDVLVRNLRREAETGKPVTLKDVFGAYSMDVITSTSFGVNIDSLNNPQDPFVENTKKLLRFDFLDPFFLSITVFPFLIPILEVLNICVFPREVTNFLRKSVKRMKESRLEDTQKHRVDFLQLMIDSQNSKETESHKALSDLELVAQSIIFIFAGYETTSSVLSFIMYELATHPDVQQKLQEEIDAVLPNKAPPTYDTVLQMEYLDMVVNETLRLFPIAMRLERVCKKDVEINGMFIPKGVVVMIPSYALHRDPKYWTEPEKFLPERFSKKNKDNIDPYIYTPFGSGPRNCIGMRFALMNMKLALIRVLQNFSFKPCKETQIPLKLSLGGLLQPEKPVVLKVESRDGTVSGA

[4] = biological target: Neurotensin receptor type 1 (Homo sapiens, UniProt P30989); assay type: functional;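 note: Image-based confirmatory dose-response assay measuring agonist activity at NTR1; NTR1-expressing U2OS osteosarcoma cells imaged for beta-arrestin GFP spot formation; agonist potency where compounds increase beta-arrestin recruitment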
Chain of Neurotensin receptor type 1 (P30989 whole entry): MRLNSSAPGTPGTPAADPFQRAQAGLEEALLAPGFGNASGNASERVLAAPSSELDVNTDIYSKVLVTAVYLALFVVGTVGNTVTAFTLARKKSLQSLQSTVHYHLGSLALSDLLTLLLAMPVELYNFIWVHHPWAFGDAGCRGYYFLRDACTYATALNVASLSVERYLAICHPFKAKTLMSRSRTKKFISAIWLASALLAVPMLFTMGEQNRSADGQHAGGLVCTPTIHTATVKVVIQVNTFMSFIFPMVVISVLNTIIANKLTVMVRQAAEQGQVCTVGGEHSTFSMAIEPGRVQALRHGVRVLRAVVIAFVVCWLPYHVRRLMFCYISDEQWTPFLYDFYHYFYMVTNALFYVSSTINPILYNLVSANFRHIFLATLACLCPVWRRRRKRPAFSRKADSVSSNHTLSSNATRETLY

[5] = growth suppression of PTEN-null colon cells, dose response, cell-based, HCT116 PTEN knockout (AID 1047); assay type: functional;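 note: HCT116 colon tumor cells with PTEN knocked out; cells exposed to compound for 60 hours before readout; potency for loss of cell viability measured by luminescence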
[6] = Luminescence Cell-Based Dose Retest to Confirm Inhibitors of Cancer Stem Cells. [Related pubchem assays (depositor defined):AID2717, AID2721]; assay type: functional; details: Homo sapiens
[7] = growth suppression of beta-catenin-knockout colon cells, dose response, cell-based, HCT116, human colon tumor (AID 1045); assay type: functional;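 note: HCT116 colon tumor cells with beta catenin knocked out; cells exposed to compound for 60 hours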
Cytochrome P450 3A4 [8] = biological target: T2, Cytochrome P450 3A4
cells [9] = assay type: functional, cell-based
cells [10] = assay type: functional, cell-based; remark: listed apart in the source
[11] = biological target: FAD-linked sulfhydryl oxidase ALR (Homo sapiens, UniProt P55789); assay: inhibitors of human ALR sulfhydryl oxidase, dose response, biochemical, H2O2 detection, luminescence, cherry-pick (AID 493248)
Chain of FAD-linked sulfhydryl oxidase ALR (P55789 whole entry): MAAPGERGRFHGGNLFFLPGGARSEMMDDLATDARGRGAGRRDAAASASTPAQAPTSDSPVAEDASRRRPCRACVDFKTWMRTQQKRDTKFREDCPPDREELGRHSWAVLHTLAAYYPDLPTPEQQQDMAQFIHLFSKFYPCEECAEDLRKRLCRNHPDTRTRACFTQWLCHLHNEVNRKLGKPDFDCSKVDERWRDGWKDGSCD

Large T antigen = Large T antigen (Simian virus 40, UniProt P03070); assay type: functional, Betapolyomavirus macacae;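 note: Confirmatory-stage PubChem screen for compounds that inhibit SV40 T antigen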
Chain of Large T antigen (P03070 whole entry): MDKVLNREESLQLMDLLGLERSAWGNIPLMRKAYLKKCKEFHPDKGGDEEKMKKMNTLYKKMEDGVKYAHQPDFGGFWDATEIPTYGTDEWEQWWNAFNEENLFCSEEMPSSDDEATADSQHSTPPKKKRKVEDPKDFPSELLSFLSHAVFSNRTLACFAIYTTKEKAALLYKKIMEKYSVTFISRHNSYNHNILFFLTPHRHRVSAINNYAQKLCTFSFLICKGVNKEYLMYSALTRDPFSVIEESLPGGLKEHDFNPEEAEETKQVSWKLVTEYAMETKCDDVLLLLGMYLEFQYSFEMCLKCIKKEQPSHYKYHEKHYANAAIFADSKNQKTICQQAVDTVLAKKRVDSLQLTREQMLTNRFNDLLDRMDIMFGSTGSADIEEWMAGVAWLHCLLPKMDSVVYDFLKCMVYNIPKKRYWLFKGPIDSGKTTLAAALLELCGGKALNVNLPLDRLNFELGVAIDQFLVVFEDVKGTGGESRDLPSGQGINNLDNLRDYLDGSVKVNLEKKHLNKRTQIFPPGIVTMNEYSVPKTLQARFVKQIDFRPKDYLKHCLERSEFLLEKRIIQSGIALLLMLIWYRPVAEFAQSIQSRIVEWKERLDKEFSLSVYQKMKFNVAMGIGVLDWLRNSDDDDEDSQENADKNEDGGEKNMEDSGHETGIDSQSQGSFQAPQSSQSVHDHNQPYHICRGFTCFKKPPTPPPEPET

INS1 = assay: beta cell apoptosis inhibitors, cytokine rescue, dose response, luminescence, retest (AID 449756); assay type: functional, cell-based; details: Rattus norvegicus;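 note: cell death triggered by IL-1 beta plus TNF-alpha plus IFN-gamma mixture; protective hits raise ATP signal compared with cytokine alone wells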
[12] = NIH:OVCAR-3 ovarian cancer cell cytotoxicity, dose response, PAX8 inhibitor project, plate reader, dry powder samples (AID 743044); assay type: functional, cell-based
Paired box protein Pax-8 = Paired box protein Pax-8 (Homo sapiens, UniProt Q06710); assay: inhibitors of PAX8-driven TPO luciferase reporter, dose response, RMG-I cells, cherry-pick (AID 687027); assay type: functional, cell-based;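 note: luciferase reporter driven by Pax8 target thyroperoxidase promoter measured by SteadyGlo luminescence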
Chain of Paired box protein Pax-8 (Q06710 whole entry): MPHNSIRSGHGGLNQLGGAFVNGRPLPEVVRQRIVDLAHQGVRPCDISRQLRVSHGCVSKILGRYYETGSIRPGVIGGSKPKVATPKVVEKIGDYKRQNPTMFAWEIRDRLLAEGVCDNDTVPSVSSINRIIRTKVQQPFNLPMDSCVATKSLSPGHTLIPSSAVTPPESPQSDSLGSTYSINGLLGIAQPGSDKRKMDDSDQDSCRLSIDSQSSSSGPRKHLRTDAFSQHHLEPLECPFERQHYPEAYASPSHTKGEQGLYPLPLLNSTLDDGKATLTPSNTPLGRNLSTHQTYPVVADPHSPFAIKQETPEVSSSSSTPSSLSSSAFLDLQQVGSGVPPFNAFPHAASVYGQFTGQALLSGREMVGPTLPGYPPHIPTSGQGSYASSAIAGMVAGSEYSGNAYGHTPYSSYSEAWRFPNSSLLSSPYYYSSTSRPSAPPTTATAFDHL

[13] = cytotoxicity in OVCAR8 ovarian cancer cells, dose response, PAX8 project, cell-based, plate reader, dry powder samples (AID 743197); assay type: functional; details: OVCAR-8
[14] = IGROV1 ovarian cancer cell cytotoxicity, dose response, PAX8 inhibitor project, plate reader, dry powder samples (AID 743043); assay type: functional, cell-based; details: IGROV-1
[15] = biological target: T3, Replicative DNA helicase DnaB (Mycobacterium tuberculosis, UniProt P9WMR3); assay: DnaB intein splicing inhibitors, dose response, biochemical, cell-free fluorescence (AID 449749); assay type: functional
T3 sequence (P9WMR3 whole entry): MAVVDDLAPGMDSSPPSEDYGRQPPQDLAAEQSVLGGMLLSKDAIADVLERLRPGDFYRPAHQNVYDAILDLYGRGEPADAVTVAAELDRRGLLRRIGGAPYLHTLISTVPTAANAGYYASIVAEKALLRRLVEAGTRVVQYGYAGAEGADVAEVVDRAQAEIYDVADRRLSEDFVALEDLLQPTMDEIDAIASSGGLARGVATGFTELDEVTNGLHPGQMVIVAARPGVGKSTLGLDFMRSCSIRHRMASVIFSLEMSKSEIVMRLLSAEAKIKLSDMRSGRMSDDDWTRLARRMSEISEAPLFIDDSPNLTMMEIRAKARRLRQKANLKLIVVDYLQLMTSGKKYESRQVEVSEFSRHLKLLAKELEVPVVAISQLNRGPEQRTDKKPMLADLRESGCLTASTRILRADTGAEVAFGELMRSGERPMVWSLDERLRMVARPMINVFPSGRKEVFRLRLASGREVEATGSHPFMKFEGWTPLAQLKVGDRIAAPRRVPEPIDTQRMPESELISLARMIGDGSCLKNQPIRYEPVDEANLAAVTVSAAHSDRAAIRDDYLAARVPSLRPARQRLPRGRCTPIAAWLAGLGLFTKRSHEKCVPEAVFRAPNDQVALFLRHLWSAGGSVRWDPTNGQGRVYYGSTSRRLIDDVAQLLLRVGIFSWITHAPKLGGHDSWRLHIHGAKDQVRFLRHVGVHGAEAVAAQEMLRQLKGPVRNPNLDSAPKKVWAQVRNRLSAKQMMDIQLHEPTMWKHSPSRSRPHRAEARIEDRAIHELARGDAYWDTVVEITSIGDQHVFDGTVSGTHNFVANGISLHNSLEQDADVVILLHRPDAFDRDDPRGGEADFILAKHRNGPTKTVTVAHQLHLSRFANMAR

Protein RecA = biological target: T4, Protein RecA (Mycobacterium tuberculosis, UniProt P9WHJ3); assay: Fluorescence Cell-Free Homogeneous Dose Retest to Identify Inhibitors of RecA-Intein Splicing Activity. [Related pubchem assays (depositor defined):AID2097, AID2223, AID489010, AID492950]; assay type: functional
T4 sequence (P9WHJ3 whole entry): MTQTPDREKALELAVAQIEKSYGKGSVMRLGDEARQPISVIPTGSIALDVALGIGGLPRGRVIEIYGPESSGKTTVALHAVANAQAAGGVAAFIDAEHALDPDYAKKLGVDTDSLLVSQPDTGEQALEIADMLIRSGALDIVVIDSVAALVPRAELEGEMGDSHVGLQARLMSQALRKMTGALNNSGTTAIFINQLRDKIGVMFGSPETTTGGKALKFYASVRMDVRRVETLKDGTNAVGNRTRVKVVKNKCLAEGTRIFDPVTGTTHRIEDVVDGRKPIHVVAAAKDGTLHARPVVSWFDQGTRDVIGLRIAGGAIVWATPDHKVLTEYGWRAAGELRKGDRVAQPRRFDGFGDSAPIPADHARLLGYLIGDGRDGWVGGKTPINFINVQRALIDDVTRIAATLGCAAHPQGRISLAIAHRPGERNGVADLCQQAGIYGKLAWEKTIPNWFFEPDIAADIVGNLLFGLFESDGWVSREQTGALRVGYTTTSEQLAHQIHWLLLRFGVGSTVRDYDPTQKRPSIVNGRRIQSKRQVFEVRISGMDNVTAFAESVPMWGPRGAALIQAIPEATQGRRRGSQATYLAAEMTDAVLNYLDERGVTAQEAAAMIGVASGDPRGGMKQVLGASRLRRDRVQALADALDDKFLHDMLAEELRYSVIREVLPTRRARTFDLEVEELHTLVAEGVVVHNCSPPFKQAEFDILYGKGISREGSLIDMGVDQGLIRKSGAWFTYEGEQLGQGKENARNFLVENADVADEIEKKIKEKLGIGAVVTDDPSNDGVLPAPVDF

[16] = biological target: T5, Short transient receptor potential channel 4 (Mus musculus, UniProt Q9QUQ5); assay: mouse TRPC4 channel activators, dose response, cell-based, HEK293 TRPC4/mu-opioid, Fluo-4 calcium (AID 434937); assay type: functional
T5 sequence (Q9QUQ5 whole entry): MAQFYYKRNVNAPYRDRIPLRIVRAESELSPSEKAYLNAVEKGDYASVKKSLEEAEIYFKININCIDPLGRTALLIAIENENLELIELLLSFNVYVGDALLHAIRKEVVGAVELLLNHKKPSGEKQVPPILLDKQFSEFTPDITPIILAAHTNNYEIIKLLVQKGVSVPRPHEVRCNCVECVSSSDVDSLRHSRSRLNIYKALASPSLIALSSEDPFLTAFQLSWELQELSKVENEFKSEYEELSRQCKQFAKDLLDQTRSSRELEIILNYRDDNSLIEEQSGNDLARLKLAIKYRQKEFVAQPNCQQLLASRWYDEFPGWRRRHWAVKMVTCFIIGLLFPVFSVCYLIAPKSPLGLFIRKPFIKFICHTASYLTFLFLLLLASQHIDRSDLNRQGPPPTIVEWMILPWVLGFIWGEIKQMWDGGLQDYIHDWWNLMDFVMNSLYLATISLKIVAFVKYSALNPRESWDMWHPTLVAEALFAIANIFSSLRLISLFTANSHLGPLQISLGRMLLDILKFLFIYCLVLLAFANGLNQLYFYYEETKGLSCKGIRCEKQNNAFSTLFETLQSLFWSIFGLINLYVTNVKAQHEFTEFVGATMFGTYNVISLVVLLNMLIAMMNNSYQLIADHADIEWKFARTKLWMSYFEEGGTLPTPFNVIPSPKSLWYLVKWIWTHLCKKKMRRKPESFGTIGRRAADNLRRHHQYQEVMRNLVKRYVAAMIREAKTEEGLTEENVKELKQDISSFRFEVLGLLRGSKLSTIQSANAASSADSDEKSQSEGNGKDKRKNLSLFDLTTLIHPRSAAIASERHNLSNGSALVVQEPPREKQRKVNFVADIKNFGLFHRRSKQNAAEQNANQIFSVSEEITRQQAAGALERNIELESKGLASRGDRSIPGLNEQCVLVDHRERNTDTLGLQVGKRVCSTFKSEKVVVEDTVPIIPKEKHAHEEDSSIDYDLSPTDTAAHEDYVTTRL

Cc1cccc(CN2C3=NCCCN3c3ccccc32)c1
EC50 [1]: > 50 µM (active)

C[C@H](CO)N1C[C@H](C)[C@H](CN(C)Cc2ccc(C(=O)Nc3ccccc3N)cc2)Oc2c(cccc2N(C)C)C1=O
AC50 [2]: 3.67 µM (active)

O=C1CC(=O)C(n2cncn2)C(c2ccc(Cl)cc2Cl)C1 (stereo not given)
IC50 (Leucine aminopeptidase): 17.9 µM (active)

C[C@@H]1CN([C@H](C)CO)C(=O)Cc2cc(NC(=O)NC3CCCCC3)ccc2O[C@H]1CN(C)Cc1ccc(-c2ccccc2)cc1
AC50 [2]: 4.51 µM (active)

COCCN(CCOC)c1nc(C)nc2c1nc(-c1ccccc1)n2CC1CCN(C)CC1
AC50 (Cytochrome P450 3A4 [3]): 15.8 µM (inconclusive)

Cc1cc(C)cc(N2C(=O)NC(=O)/C(=C/c3cccn3-c3ccc(Cl)cc3)C2=O)c1
EC50 [4]: 10.6 µM (active)
EC50 [5]: 31.6 µM (active)
AC50 [6]: 1.04 µM (active)
EC50 [7]: 26.1 µM (active)

CC(=O)c1cccc(NC(=O)CCC2CCCC2)c1
AC50 (Cytochrome P450 3A4 [8]): 28.2 µM (inconclusive)
EC50 [1]: > 50 µM (active)

CCCCNc1nc(C)nc2c1nc(-c1ccccc1)n2CCCN(C)C
AC50 (Cytochrome P450 3A4 [3]): 15.8 µM (inconclusive)

O=C(O)C1CC=CCC1C(=O)NCCc1ccccc1 (stereo not given)
IC50 (cells [9]): > 29.9 µM (inactive)
EC50 (cells [10]): > 29.9 µM (inactive)

COc1ccc(S(=O)(=O)Nc2ccc3c(c2)CC(=O)N([C@@H](C)CO)C[C@@H](C)[C@@H](CN(C)Cc2ccc(C(F)(F)F)cc2)O3)cc1
AC50 [2]: 5.93 µM (active)

C/C(=N/NC(=O)Cc1c(C)n[nH]c1O)c1ccc(O)cc1
AC50 [11]: 1.49 µM (active)
IC50 (Leucine aminopeptidase): 4.09 µM (active)
IC50 (Large T antigen): 31.4 µM (active)

O=C(c1ccc(Cl)cc1)C(CN1CCCCC1)c1ccccc1 (stereo not given)
EC50 [4]: 14.7 µM (active)
AC50 (INS1): 19.4 µM (active)

Cc1ccc(-n2c(C)cc(C(=O)NS(=O)(=O)c3ccc(C)cc3)c2C)cc1
IC50 (Leucine aminopeptidase): 25.4 µM (active)

COc1ccc(NS(=O)(=O)c2cccc(NC(=O)c3ccccn3)c2)cc1
EC50 [1]: > 50 µM (active)

COc1ccc(CNC(=O)C2CC(C)=C(C)CC2C(=O)O)cc1 (stereo not given)
IC50 (Leucine aminopeptidase): 43.7 µM (active)

C[C@@H]1CN([C@H](C)CO)C(=O)c2cc(NS(=O)(=O)c3ccccc3)ccc2O[C@@H](C)CCCCO[C@@H]1CN(C)CC1CCCCC1
AC50 [12]: 53.9 µM (active)
AC50 (Paired box protein Pax-8): 19.6 µM (active)
AC50 [13]: 68 µM (active)

C[C@@H]1CCCCO[C@@H](CN(C)S(=O)(=O)c2ccc(Cl)cc2)[C@H](C)CN([C@H](C)CO)C(=O)c2cc(NS(=O)(=O)c3ccc(F)cc3)ccc2O1
AC50 (Paired box protein Pax-8): 3.41 µM (active)
AC50 [14]: 57.7 µM (active)

C(=NOCCc1ccccc1)c1cccnc1
IC50 (cells [9]): > 29.8 µM (inactive)
EC50 (cells [10]): > 29.8 µM (inactive)

O=C(Cc1cc(O)n[nH]1)N/N=C/c1c(Cl)cccc1Cl
IC50 (Leucine aminopeptidase): 49.9 µM (active)
AC50 [15]: 2.66 µM (active) and 7.7 µM (active)
EC50 (Protein RecA): 6.26 µM (inconclusive) and 1.51 µM (active)

O=C1CC(c2ccccc2O)Oc2ccc(O)cc21 (stereo not given)
AC50 (Cytochrome P450 3A4 [3]): 25.1 µM (inconclusive)

Cc1cc(Cl)nc(Cl)c1C(=O)NCCc1ccccc1
IC50 (cells [9]): > 29.9 µM (inactive)
EC50 (cells [10]): > 29.9 µM (inactive)

C[C@H](CO)N1C[C@H](C)[C@H](CN(C)C(=O)Nc2ccc(C(F)(F)F)cc2)Oc2c(NC(=O)Nc3ccc(C(F)(F)F)cc3)cccc2C1=O
AC50 [2]: 6.56 µM (active)

CC(c1cccnc1)N(CCN(C)C)C(=O)Nc1ccc(Cl)c(Cl)c1 (stereo not given)
EC50 [1]: > 50 µM (active)
EC50 [16]: 1.5 µM (active)

COc1ccc(C2Oc3cc(OC)cc(OC)c3CC2O)cc1 (stereo not given)
AC50 (Cytochrome P450 3A4 [3]): 20 µM (inconclusive)
